Data on ten molecules can be found in ChEMBL document CHEMBL1201862, “PubChem BioAssay data set” (2004).

Test systems include HL-60; SF-268; MOLT-4; M14; NCI-H522; TK-10; SN12C; NCI-H226; SF-295; HT-29; KM12; RPMI-8226; RXF 393; OVCAR-5; T47D; HCT-15; ACHN; HOP-92; UACC-62; U-251.
What all share (experiment): NCI tumour cell line growth inhibition, 48 h

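Results reflect a 48-hour exposure of cells in 96-well plates to compound at five concentrations. GI50 is the concentration that inhibits growth by half.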 Activity calls are given as the source filed them. No stated cut-off is given here; in the data, active = GI50 up to about 1.1 µM and inactive = higher.

As to `Nc1c(S(=O)(=O)O)cc(Nc2cccc(S(=O)(=O)/C=C/S(=O)(=O)O)c2)c2c1C(=O)c1ccccc1C2=O`, the GI50 in the assay with HL-60, in the assay with SF-268, with MOLT-4, in the assay with M14, in the assay on NCI-H522 and with TK-10 was > 100 µM (inactive) in each case. The GI50 in the assay with SN12C, with NCI-H226, in the assay with SF-295, in the assay on HT-29, with KM12 and in the assay with RPMI-8226 was > 100 µM (inactive) each time. Besides, the GI50 with RXF 393 is 14.2 µM (inactive); in the assay with OVCAR-5 it was > 100 µM (inactive); with T47D, > 100 µM (inactive); in the assay with HCT-15, over 100 µM; in the assay with ACHN it was > 100 µM (inactive); in the assay with HOP-92, > 100 µM (inactive). For the same molecule, the GI50 in the assay on UACC-62 and in the assay on U-251 was > 100 µM (inactive) each time.

Turning to `CCN(CC)CCSc1nc2c(c(=N)n1-c1ccccc1)c(=S)n(-c1ccccc1)c(=S)n2-c1ccccc1`, the GI50 is 0.0559 µM (active) in the assay on HL-60; 1.67 µM (inactive) in the assay with SF-268; 0.194 µM (active) in the assay with MOLT-4; 2.16 µM (inactive) in the assay with M14; 0.843 µM (active) in the assay on NCI-H522; 1.73 µM (inactive) with TK-10. The GI50 with SN12C is 1.73 µM (inactive); in the assay on NCI-H226 it was 25.7 µM (inactive); in the assay on SF-295, 12.8 µM (inactive); in the assay with HT-29 it was 1.77 µM (inactive); with KM12 it was 5.69 µM (inactive); with RPMI-8226 it was 0.275 µM (active). Besides, the GI50 is 1.36 µM (inactive) with RXF 393; 14.9 µM (inactive) with OVCAR-5; 2.61 µM (inactive) in the assay with T47D; 1.77 µM with HCT-15; 1.74 µM (inactive) with ACHN; 1.41 µM (inactive) with HOP-92. The GI50 in the assay with UACC-62 was 1.71 µM (inactive); in the assay on U-251, 2.37 µM (inactive).

Regarding `CC1(C)C=C(S(=O)(=O)c2ccccc2)Oc2ccccc2O1`, the GI50 was 20.5 µM (inactive) with HL-60; 61.1 µM (inactive) with SF-268; 25.2 µM (inactive) with MOLT-4; 46 µM (inactive) with M14; 40.9 µM (inactive) in the assay on NCI-H522; 6.7 µM (inactive) in the assay on TK-10. Moreover, the GI50 with SN12C was 64.9 µM (inactive); in the assay with NCI-H226 it was 46.6 µM (inactive); in the assay with SF-295 it was 33 µM (inactive); with HT-29, 39.6 µM (inactive); in the assay with KM12, 43.6 µM (inactive); in the assay with RPMI-8226 it was 32.9 µM (inactive). Further, the GI50 in the assay with RXF 393 was 34.8 µM (inactive); in the assay on OVCAR-5, > 100 µM (inactive); with T47D, 19.8 µM (inactive); with HCT-15, 33.3 µM; with ACHN, 34.8 µM (inactive); with HOP-92 it was 24.5 µM (inactive). The GI50 was 38.4 µM (inactive) in the assay with UACC-62 and 45.4 µM (inactive) in the assay on U-251.

Consider `CN(C)c1cccc(F)c1C(=O)NC(=O)Nc1ccc(Cl)cc1`, for which the GI50 with HL-60 is 0.533 µM (active); in the assay on SF-268, 12 µM (inactive); in the assay on MOLT-4 it was 1.62 µM (inactive); in the assay on M14, 1.93 µM (inactive); in the assay with NCI-H522, 2.27 µM (inactive); with TK-10, > 100 µM (inactive). For the same molecule, the GI50 in the assay with SN12C is 8.83 µM (inactive); in the assay with NCI-H226, 5.5 µM (inactive); in the assay with SF-295 it was 1.55 µM (inactive); in the assay with HT-29 it was 1.07 µM (active); in the assay on KM12 it was 2.92 µM (inactive); with RPMI-8226, 1.81 µM (inactive). Further, the GI50 in the assay with RXF 393 was 3.67 µM (inactive); with OVCAR-5, 8.09 µM (inactive); in the assay with T47D it was 4.86 µM (inactive); in the assay on HCT-15 it was 0.579 µM; with ACHN, 4.79 µM (inactive); with HOP-92, 27.4 µM (inactive). Moreover, the GI50 in the assay with UACC-62 was 2.38 µM (inactive); in the assay on U-251, 3.69 µM (inactive).

In the case of `CC(C)C(OC(=O)c1ccc(NCc2cc(O)ccc2O)cc1)C(C)C`, the GI50 in the assay on HL-60 was 0.135 µM (active); in the assay with SF-268 it was 1.87 µM (inactive); in the assay with MOLT-4, 0.243 µM (active); in the assay on M14, 2.28 µM (inactive); in the assay on NCI-H522 it was 0.16 µM (active); in the assay with TK-10 it was 1.66 µM (inactive). Also, the GI50 was 2.42 µM (inactive) in the assay with SN12C; 1.29 µM (inactive) in the assay with NCI-H226; 3.74 µM (inactive) with SF-295; 3.34 µM (inactive) in the assay with HT-29; 2.6 µM (inactive) in the assay on KM12; 0.194 µM (active) in the assay with RPMI-8226. Also, the GI50 with RXF 393 is 0.479 µM (active); in the assay with OVCAR-5, 2.09 µM (inactive); in the assay with T47D, 0.871 µM (active); in the assay with HCT-15, 0.317 µM; with ACHN, 1.02 µM (active); in the assay on HOP-92, 0.424 µM (active). For the same molecule, the GI50 was 1.29 µM (inactive) in the assay on UACC-62 and 1.14 µM (inactive) with U-251.

For `CCN(CC)c1c(N(CC)CC)c(=O)c1=O`, the GI50 with HL-60 was 2.23 µM (inactive); with SF-268, 26.1 µM (inactive); in the assay with MOLT-4 it was 3.1 µM (inactive); with M14, 16.7 µM (inactive); with NCI-H522 it was 2.14 µM (inactive); with TK-10, 2.82 µM (inactive). In addition, the GI50 is 9.1 µM (inactive) with SN12C; 17.2 µM (inactive) in the assay with NCI-H226; > 88.9 µM (inactive) in the assay on SF-295; 2.42 µM (inactive) in the assay with HT-29; 22.6 µM (inactive) in the assay on KM12; 1.88 µM (inactive) in the assay with RPMI-8226. In addition, the GI50 was 11.3 µM (inactive) with RXF 393; 18 µM (inactive) in the assay on OVCAR-5; 3.18 µM (inactive) in the assay with T47D; 3.67 µM in the assay on HCT-15; 3.18 µM (inactive) in the assay on ACHN; 3.94 µM (inactive) in the assay on HOP-92. Besides, the results for the GI50 in the assay with UACC-62 and in the assay on U-251 were 18.2 µM (inactive) and 22.9 µM (inactive), respectively.

As to `CS(=O)(=O)OC1CCN(C2(c3cccc(O)c3)CCCCC2)CC1`, the GI50 was 16.5 µM (inactive) with HL-60; 71.3 µM (inactive) in the assay on SF-268; 27.8 µM (inactive) in the assay on MOLT-4; 43 µM (inactive) in the assay on M14; > 100 µM (inactive) with NCI-H522; > 100 µM (inactive) in the assay on TK-10. For the same molecule, the GI50 in the assay on SN12C is 32.9 µM (inactive); in the assay on NCI-H226, > 100 µM (inactive); with SF-295, 36 µM (inactive); with HT-29, 36.1 µM (inactive); with KM12, > 100 µM (inactive); with RPMI-8226, 20.7 µM (inactive). For the same molecule, the GI50 with RXF 393 is 64.6 µM (inactive); in the assay with OVCAR-5, > 100 µM (inactive); in the assay on T47D it was 70.6 µM (inactive); in the assay with HCT-15, 79.1 µM; with ACHN, > 100 µM (inactive); in the assay on HOP-92, 51.3 µM (inactive). Further, the GI50 with UACC-62 is 88.5 µM (inactive); in the assay on U-251, 64.7 µM (inactive).

Consider `O=C(O)CCC1NC(/C(=C/c2ccccc2O)NC(=O)c2ccccc2)OC1=O` (stereo not given), for which the GI50 in the assay on HL-60 is > 100 µM (inactive); with SF-268, 61.5 µM (inactive); in the assay on MOLT-4 it was > 100 µM (inactive); with M14 it was > 100 µM (inactive); in the assay with NCI-H522, 64.1 µM (inactive); in the assay on TK-10 it was 56.1 µM (inactive). Moreover, the GI50 in the assay on SN12C was > 100 µM (inactive); in the assay with NCI-H226, 72.3 µM (inactive); in the assay on SF-295, 35.4 µM (inactive); in the assay with HT-29, > 100 µM (inactive); in the assay on KM12 it was 4.57 µM (inactive); in the assay with RPMI-8226, > 100 µM (inactive). The GI50 in the assay on RXF 393 is 34.2 µM (inactive); with OVCAR-5, > 100 µM (inactive); in the assay with T47D, 16 µM (inactive); in the assay with HCT-15 it was over 100 µM; in the assay with ACHN, 33 µM (inactive); in the assay with HOP-92, > 100 µM (inactive). Further, the GI50 with UACC-62 is > 100 µM (inactive); in the assay on U-251, 37.2 µM (inactive).

Consider `O=C([O-])C[n+]1ccccc1.c1ccncc1`, for which the GI50 with HL-60 is 97.1 µM (inactive); in the assay on SF-268, > 100 µM (inactive); in the assay on MOLT-4, 33.1 µM (inactive); in the assay with M14, > 100 µM (inactive); in the assay with NCI-H522 it was > 100 µM (inactive); in the assay on TK-10 it was > 100 µM (inactive). Besides, the GI50 with SN12C, in the assay with NCI-H226, with SF-295, in the assay with HT-29, in the assay with KM12 and with RPMI-8226 was > 100 µM (inactive) each time. Besides, the GI50 in the assay on RXF 393 was > 100 µM (inactive); with OVCAR-5, > 100 µM (inactive); in the assay with T47D it was > 100 µM (inactive); with HCT-15, over 100 µM; in the assay on ACHN, > 100 µM (inactive); in the assay with HOP-92, > 100 µM (inactive). Moreover, the GI50 in the assay on UACC-62 and in the assay on U-251 was > 100 µM (inactive) in each case.

In the case of `COc1cc(-c2cc(=O)c3c(OC)c(OC)c(OC)cc3o2)c(OC)c(OC)c1OC`, the GI50 in the assay with HL-60 is 16.9 µM (inactive); with SF-268 it was > 75 µM (inactive); in the assay on MOLT-4 it was 40.2 µM (inactive); in the assay with M14, > 75 µM (inactive); in the assay on NCI-H522 it was > 75 µM (inactive); in the assay on TK-10, > 75 µM (inactive). The GI50 in the assay with SN12C was > 75 µM (inactive); in the assay with NCI-H226, > 75 µM (inactive); with SF-295, > 75 µM (inactive); in the assay with HT-29, > 75 µM (inactive); in the assay with KM12 it was > 75 µM (inactive); in the assay on RPMI-8226, 25 µM (inactive). The GI50 in the assay on RXF 393 was 52.1 µM (inactive); in the assay on OVCAR-5, > 75 µM (inactive); with T47D, 49.3 µM (inactive); in the assay with HCT-15 it was over 75 µM; in the assay on ACHN it was > 75 µM (inactive); with HOP-92 it was 14 µM (inactive). The GI50 with UACC-62 was 42.5 µM (inactive); in the assay on U-251, > 75 µM (inactive).
